Values joined by “and” are separate entries in the source; they are usually repeats but may differ in a detail not shown here. Equal values may be shown once.
Experiments:
[1] = tested on: MCF-7 (human breast cancer cell line); assay: MTT anti-proliferative assay, MCF-7; type: cell-based; details: MCF7, MCF-7, mean of at least three experiments, read-out: Cytotoxicity IC50 MCF-7
Protocol: (§1) Sorafenib was used as a reference drug.
(§2) Anti-proliferative activity activities were tested using MTT assay as described in Supplementary Materials. […]
(§3) S2.1. In vitro anti-proliferative activities
(§4) The in vitro antiproliferative activities of all the synthesized compounds against three human tumor cell lines namely, MCF-7 (human breast cancer cell line), HepG2 (human liver […]
(§5) in the literature, using MTT assay protocol. Sorafenib was used in this test as a positive control.
(§6) The anti-proliferative activity was assessed quantitatively as follows.
(§7) Human cancer cell lines were seeded in 96-well plates at a density of 3-8 × 10^3 cells/well.
(§8) Next, the cells were incubated for 12 h in a 5% CO2 incubator at 37 °C. Then, for each well, the growth medium was exchanged with 0.1 ml of fresh medium containing graded concentrations of the test compounds or equal DMSO. Then 10 μl MTT solution ([…]) was added to each well, and the cells were incubated for additional 4 h. The crystals of MTT-formazan were dissolved in 100 μl of DMSO; the absorbance of each well was measured at 490 nm using an automatic ELISA reader system (TECAN, CHE). The IC50 values were calculated using the nonlinear regression fitting models (Graph Pad, Prism Version 5). The data represented the mean of three independent experiments in triplicate and were expressed as means ± SD. The IC50 value was […]
(§9) defined as the concentration at which 50% of the cells could survive. […]

HDAC1 = HDAC1 (Homo sapiens, UniProt Q13547); assay: In vitro HDAC1 inhibitory assay; type: biochemical
Chain of HDAC1 (Q13547 whole entry): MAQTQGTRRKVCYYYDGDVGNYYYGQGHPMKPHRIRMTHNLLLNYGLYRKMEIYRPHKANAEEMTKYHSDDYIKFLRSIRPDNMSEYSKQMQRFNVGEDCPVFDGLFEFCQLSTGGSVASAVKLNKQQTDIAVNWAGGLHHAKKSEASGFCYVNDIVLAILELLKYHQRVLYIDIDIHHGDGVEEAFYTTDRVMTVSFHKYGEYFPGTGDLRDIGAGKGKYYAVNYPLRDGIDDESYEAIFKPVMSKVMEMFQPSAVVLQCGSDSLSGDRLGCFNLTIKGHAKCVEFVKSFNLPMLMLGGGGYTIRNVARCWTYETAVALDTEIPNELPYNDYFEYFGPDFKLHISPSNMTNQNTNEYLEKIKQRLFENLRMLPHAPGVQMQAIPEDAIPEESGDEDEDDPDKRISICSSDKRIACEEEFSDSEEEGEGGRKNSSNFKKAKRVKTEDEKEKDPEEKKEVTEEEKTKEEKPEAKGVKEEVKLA

HDAC4 = HDAC4 (Homo sapiens, UniProt P56524); assay: In vitro HDAC4 inhibitory assay; type: biochemical
Chain of HDAC4 (P56524 whole entry): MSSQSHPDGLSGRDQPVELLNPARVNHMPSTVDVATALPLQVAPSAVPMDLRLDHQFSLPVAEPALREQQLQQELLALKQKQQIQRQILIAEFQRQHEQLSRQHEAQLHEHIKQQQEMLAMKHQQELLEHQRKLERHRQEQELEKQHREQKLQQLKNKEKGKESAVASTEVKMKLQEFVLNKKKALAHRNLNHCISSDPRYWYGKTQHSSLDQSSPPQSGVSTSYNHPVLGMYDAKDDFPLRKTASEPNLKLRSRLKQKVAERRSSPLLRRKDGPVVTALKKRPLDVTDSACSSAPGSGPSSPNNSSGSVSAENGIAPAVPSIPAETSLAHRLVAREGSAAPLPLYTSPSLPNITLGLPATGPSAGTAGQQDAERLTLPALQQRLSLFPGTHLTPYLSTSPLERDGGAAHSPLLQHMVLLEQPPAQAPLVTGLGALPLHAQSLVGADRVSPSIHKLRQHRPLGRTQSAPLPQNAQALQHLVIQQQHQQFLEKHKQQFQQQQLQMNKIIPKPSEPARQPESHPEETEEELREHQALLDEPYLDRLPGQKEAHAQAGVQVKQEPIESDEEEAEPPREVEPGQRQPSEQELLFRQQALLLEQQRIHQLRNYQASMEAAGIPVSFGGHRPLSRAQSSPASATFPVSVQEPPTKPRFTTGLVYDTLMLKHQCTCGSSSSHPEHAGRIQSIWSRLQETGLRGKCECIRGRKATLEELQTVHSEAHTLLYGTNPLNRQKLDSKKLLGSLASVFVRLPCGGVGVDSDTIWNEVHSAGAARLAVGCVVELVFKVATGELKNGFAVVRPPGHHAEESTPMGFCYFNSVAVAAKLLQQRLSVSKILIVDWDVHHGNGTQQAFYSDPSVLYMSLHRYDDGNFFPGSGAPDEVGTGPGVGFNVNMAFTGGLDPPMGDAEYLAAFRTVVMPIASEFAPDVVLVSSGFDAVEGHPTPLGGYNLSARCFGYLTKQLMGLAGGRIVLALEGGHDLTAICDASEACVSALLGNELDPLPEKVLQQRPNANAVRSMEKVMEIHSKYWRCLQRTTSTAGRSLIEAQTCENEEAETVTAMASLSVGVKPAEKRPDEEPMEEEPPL

[2] = tested on: colorectal carcinoma (HCT-116); assay: MTT anti-proliferative assay, HCT-116; type: cell-based; details: Homo sapiens, HCT-116, read-out: Cytotoxicity IC50 HCT-116
Protocol: as §1, §2, §3, §4, §5, §6, §7, §8, §9

[3] = tested on: HepG2 (human liver carcinoma cell line); assay: MTT anti-proliferative assay, HepG2; type: cell-based; details: HepG2, mean of at least three experiments, read-out: Cytotoxicity IC50 HepG-2
Protocol: as §1, §2, §3, §4, §5, §6, §7, §8, §9

## CCn1c(N)c(C(c2ccccc2)c2c(N)n(CC)c(=S)[nH]c2=O)c(=O)[nH]c1=S [Compound 5a, 5,5′-(Phenylmethylene)bis(6-amino-1-ethyl-2-thioxo-2,3-dihydropyrimidin-4(1H)-one)]
[1]
  IC50: 11 ± 1.6 µM
HDAC1
  IC50: 3110 nM
HDAC4
  IC50: 12.2 µM
[2]
  IC50: 88 ± 2.4 µM
other
  melting point: > 300 °C
[3]
  IC50: 39 ± 2.5 µM

## CCn1c(N)c(C(c2ccc(C)cc2)c2c(N)n(CC)c(=S)[nH]c2=O)c(=O)[nH]c1=S [Compound 5b, 5,5′-(p-Tolylmethylene)bis(6-amino-1-ethyl-2-thioxo-2,3-dihydropyrimidin-4(1H)-one)]
[1]
  IC50: 55 ± 2.8 µM
HDAC1
  IC50: 2270 nM
HDAC4
  IC50: 18 µM
[2]
  IC50: 21 ± 2.4 µM
other
  melting point: 239 to 240 °C
[3]
  IC50: 51 ± 4 µM

## CCn1c(N)c(C(c2ccc(Cl)cc2)c2c(N)n(CC)c(=S)[nH]c2=O)c(=O)[nH]c1=S [Compound 5c, 5,5′-((4-Chlorophenyl)methylene)bis(6-amino-1-ethyl-2-thioxo-2,3-dihydropyrimidin-4(1H)-one)]
[1]
  IC50: 77 ± 2.3 µM
[2]
  IC50: 97 ± 1.2 µM
other
  melting point: > 300 °C
[3]
  IC50: 89 ± 2.4 µM

## CCn1c(N)c(C(c2ccc(Cl)cc2Cl)c2c(N)n(CC)c(=S)[nH]c2=O)c(=O)[nH]c1=S [Compound 5d, 5,5′-((2,4-Dichlorophenyl)methylene)bis(6-amino-1-ethyl-2-thioxo-2,3-dihydropyrimidin-4(1H)-one)]
[1]
  IC50: 62 ± 2.1 µM
[2]
  IC50: 281 ± 2.1 µM
other
  melting point: 272 to 273 °C
[3]
  IC50: 40 ± 2.7 µM

## CCn1c(N)c(C(c2ccc(OC)cc2)c2c(N)n(CC)c(=S)[nH]c2=O)c(=O)[nH]c1=S [Compound 5e, 5,5′-((4-Methoxyphenyl)methylene)bis(6-amino-1-ethyl-2-thioxo-2,3-dihydropyrimidin-4(1H)-one)]
[1]
  IC50: 60 ± 0.49 µM
[2]
  IC50: 90 ± 3 µM
other
  melting point: 260 to 261 °C
[3]
  IC50: 42 ± 2 µM

## CCn1c(N)c(C(c2ccc([N+](=O)[O-])cc2)c2c(N)n(CC)c(=S)[nH]c2=O)c(=O)[nH]c1=S [Compound 5f, 5,5′-((4-Nitrophenyl)methylene)bis(6-amino-1-ethyl-2-thioxo-2,3-dihydropyrimidin-4(1H)-one)]
[1]
  IC50: 9.3 ± 3.4 µM
HDAC1
  IC50: 4000 nM
HDAC4
  IC50: 12.2 µM
[2]
  IC50: 71 ± 2.1 µM
other
  melting point: 274 to 275 °C
[3]
  IC50: 49 ± 0.17 µM

## CCn1c(N)c(C(c2cccs2)c2c(N)n(CC)c(=S)[nH]c2=O)c(=O)[nH]c1=S [Compound 5g, 5,5′-(Thiophen-2-ylmethylene)bis(6-amino-1-ethyl-2-thioxo-2,3-dihydropyrimidin-4(1H)-one)]
[1]
  IC50: 21 ± 2.2 µM
[2]
  IC50: 68 ± 1.8 µM
other
  melting point: 271 to 272 °C
[3]
  IC50: 33 ± 3.8 µM

## CCCn1c(N)c(Cc2c(N)n(CCC)c(=O)[nH]c2=O)c(=O)[nH]c1=O [Compound 5h, 5,5′-Methylenebis(6-amino-1-propylpyrimidine-2,4(1H,3H)-dione)]
[1]
  IC50: 88 ± 2.5 µM
[2]
  IC50: 91 ± 1.9 µM
[3]
  IC50: 52 ± 3.2 µM

## CCCn1c(N)c(C(c2ccccc2)c2c(N)n(CCC)c(=O)[nH]c2=O)c(=O)[nH]c1=O [Compound 5i, 5,5′-(Phenylmethylene)bis(6-amino-1-propylpyrimidine-2,4(1H,3H)-dione)]
[1]
  IC50: 261 ± 2.5 µM
HDAC1
  IC50: 342 nM and 352 nM
HDAC4
  IC50: 19.5 µM
[2]
  IC50: 64 ± 2.1 µM
other
  melting point: 294 to 295 °C
[3]
  IC50: 4 ± 1 µM

## CCCn1c(N)c(C(c2ccc(C)cc2)c2c(N)n(CCC)c(=O)[nH]c2=O)c(=O)[nH]c1=O [Compound 5j, 5,5′-(p-Tolylmethylene)bis(6-amino-1-propylpyrimidine-2,4(1H,3H)-dione)]
[1]
  IC50: 71 ± 2 µM
[2]
  IC50: 400 ± 2.4 µM
other
  melting point: 286 to 287 °C
[3]
  IC50: 38 ± 1.8 µM

## CCCn1c(N)c(C(c2ccc(Cl)cc2Cl)c2c(N)n(CCC)c(=O)[nH]c2=O)c(=O)[nH]c1=O [Compound 5k, 5,5′-((2,4-Dichlorophenyl)methylene)bis(6-amino-1-propylpyrimidine-2,4(1H,3H)-dione)]
[1]
  IC50: 242 ± 2 µM
HDAC1
  IC50: 464 nM
HDAC4
  IC50: 13 µM
[2]
  IC50: 80 ± 2.6 µM
other
  melting point: 285 to 286 °C
[3]
  IC50: 5 ± 2 µM

## CCCn1c(N)c(C(c2ccc(OC)cc2)c2c(N)n(CCC)c(=O)[nH]c2=O)c(=O)[nH]c1=O [Compound 5l, 5,5′-((4-Methoxyphenyl)methylene)bis(6-amino-1-propylpyrimidine-2,4(1H,3H)-dione)]
[1]
  IC50: 381 ± 1.5 µM
[2]
  IC50: 83 ± 1.9 µM
other
  melting point: 289 to 290 °C
[3]
  IC50: 31 ± 2 µM

## CCn1c2c(c(=O)[nH]c1=S)C(c1ccccc1)c1c(n(CC)c(=S)[nH]c1=O)N2 [Compound 6a, 1,9-Diethyl-5-phenyl-2,8-dithioxo-2,3,5,8,9,10-hexahydropyrido[2,3-d:6,5-d′]dipyrimidine-4,6(1H,7H)-dione]
[1]
  IC50: 333 ± 2.9 µM
[2]
  IC50: 291 ± 3.5 µM
other
  melting point: 255 to 256 °C
[3]
  IC50: 220 ± 3 µM

## CCn1c2c(c(=O)[nH]c1=S)C(c1ccc([N+](=O)[O-])cc1)c1c(n(CC)c(=S)[nH]c1=O)N2 [Compound 6b, 1,9-Diethyl-5-(4-nitrophenyl)-2,8-dithioxo-2,3,5,8,9,10-hexahydropyrido[2,3-d:6,5-d′]dipyrimidine-4,6(1H,7H)-dione]
[1]
  IC50: 577 ± 20 µM
[2]
  IC50: 299 ± 2 µM
other
  melting point: 251 to 252 °C
[3]
  IC50: 184 ± 3.7 µM

## CCCn1c2c(c(=O)[nH]c1=O)C(c1ccc(OC)cc1)c1c(n(CCC)c(=O)[nH]c1=O)N2 [Compound 6c, 5-(4-Methoxyphenyl)-1,9-dipropyl-5,10-dihydropyrido[2,3-d:6,5-d′]dipyrimidine-2,4,6,8(1H,3H,7H,9H)-tetraone]
[1]
  IC50: 435 ± 4.3 µM
[2]
  IC50: 466 ± 4.6 µM
other
  melting point: 180 to 181 °C
[3]
  IC50: 114 ± 2.2 µM

## CCCn1c2c(c(=O)[nH]c1=O)Cc1c(n(CCC)c(=O)[nH]c1=O)N2 [Compound 6d, 1,9-Dipropyl-5,10-dihydropyrido[2,3-d:6,5-d′]dipyrimidine-2,4,6,8 (1H,3H,7H,9H)-tetraone]
[1]
  IC50: 413 ± 1.3 µM
[2]
  IC50: 361 ± 2 µM
[3]
  IC50: 168 ± 1.5 µM

## CCn1c(=S)[nH]c(=O)c2c(-c3ccc(Cl)cc3)c3c(=O)[nH]c(=S)n(CC)c3nc21 [Compound 7a, 5-(4-Chlorophenyl)-1,9-diethyl-2,8-dithioxo-2,3,8,9-tetrahydropyrido[2,3-d:6,5-d′]dipyrimidine-4,6(1H,7H)-dione]
[1]
  IC50: 472 ± 3.2 µM
[2]
  IC50: 361 ± 1.9 µM
other
  melting point: 224 to 225 °C
[3]
  IC50: 189 ± 4.8 µM

## CCn1c(=S)[nH]c(=O)c2c(-c3ccc(OC)cc3)c3c(=O)[nH]c(=S)n(CC)c3nc21 [Compound 7b, 1,9-Diethyl-5-(4-methoxyphenyl)-2,8-dithioxo-2,3,8,9-tetrahydropyrido[2,3-d:6,5-d′]dipyrimidine-4,6(1H,7H)-dione]
[1]
  IC50: 871 ± 3.2 µM
[2]
  IC50: 301 ± 3.4 µM
other
  melting point: 221 °C
[3]
  IC50: 173 ± 4.5 µM

## CCn1c(=S)[nH]c(=O)c2c(-c3cccs3)c3c(=O)[nH]c(=S)n(CC)c3nc21 [Compound 7c, 1,9-Diethyl-5-(thiophen-2-yl)-2,8-dithioxo-2,3,8,9-tetrahydropyrido[2,3-d:6,5-d′]dipyrimidine-4,6(1H,7H)-dione]
[1]
  IC50: 450 ± 2.2 µM
[2]
  IC50: 243 ± 2.2 µM
other
  melting point: 216 to 217 °C
[3]
  IC50: 221 ± 2.5 µM

## CNC(=O)c1cc(Oc2ccc(NC(=O)Nc3ccc(Cl)c(C(F)(F)F)c3)cc2)ccn1 [Sorafenib, reference compound]
[1]
  IC50: 141 ± 3 µM
[2]
  IC50: 177 ± 0.9 µM
[3]
  IC50: 17 ± 2.3 µM

— article PMC10384246, “Discovery of New Uracil and Thiouracil Derivatives as Potential HDAC Inhibitors” (Pharmaceuticals, 2023)
